Positions count from the first letter of the chain named.

The test system of one data set is A549 cells. Kind of data set: MTT cytotoxicity assay, parental A549 cells. The settings on record: 96 hours exposure, mean of at least three experiments. Type of data set: cell-based, Human. The protocol:
(§1) Tissue culture: Human non-small cell lung cancer A549 cells and T-cell leukemia CCRF-CEM cells were grown under monolayer conditions or up to a maximal density of 10^6 cells/ml (for CCRF-CEM cells) in RPMI-1640 medium (GIBCO) supplemented with 10% fetal calf serum, 2 mM glutamine, 100 μg/ml penicillin and 100 μg/ml streptomycin (Biological Industries, Beth-Haemek, Israel) in a humid atmosphere of 5% CO2. Drug resistant A549/K1.5 cells with ABCG2 overexpression were maintained under a continuous drug selection with 1.5 μM C-1305. Bram, E. E., et al., (2007) Biochem Pharmacol 74(1), 41-53.
(§2) Cytotoxicity and growth inhibition assays: The cytotoxic activity of the various IA antitumor agents was determined using the MTT assay. Poindessous, V., et al., (2003) Clin Cancer Res 9(7), 2817-2825.
(§3) Exponentially growing cells were seeded at 5×10^3 cells/well in 24-well plates (2 ml medium/well). Following an overnight incubation, cells were exposed to different drug concentrations for 96 hours. Cellular viability was determined by adding the tetrazolium salt MTT for 4 h at 37° C., followed by solubilization of the intracellular precipitated formazan in 1 ml DMSO and absorbance was determined by a microplate reader (ASYS Hitech GmbH, Austria). Drug concentrations required to inhibit cell growth by 50% (IC50) compared with untreated controls were determined from the curves of survival versus drug concentrations using the SlideWrite software (Advanced Graphics Software, Inc., Encinitas, Calif.). Resistance folds (RF) were calculated by dividing the IC50 value of the resistant cells by that of the parental cell line. Values presented are means of at least three independent experiments, each performed in duplicates.
On the technique in general: Tetrazolium assays rely on reduction of a dye to a coloured formazan, in cell work by metabolically active cells.

Another data set relates to A549/K1.5 cells. The data set can be described thus: MTT cytotoxicity assay, ABCG2-overexpressing A549/K1.5 cells. The format is cell-based, Human. Conditions: for IC50: ABCG2-overexpressing A549/K1.5 cells, 96 hours exposure, MTT; for RF (resistance fold): IC50 of A549/K1.5 cells divided by IC50 of parental A549 cells. The protocol:
as §1, §2, §3
Quantitative evaluation of ABCG2 interaction with various IA derivatives: The extent of ABCG2-mediated resistance was expressed using the Resistance Fold (RF) parameter representing the ratio between the IC50 values of the resistant cells and parental cells. Likewise, ABCG2-dependent differential accumulation of IAs in ABCG2-overexpressing A549/K1.5 cells was compared using the ratio of IA accumulation in the presence or absence of the potent ABCG2 inhibitor FTC. This was termed the FTC-dependent Accumulation Fold (AF) and was determined for each IA at a constant IA concentration of 10 μM.

Data set [1] has as its system untransfected HEK293 cells. The data set can be described thus: Flow cytometric accumulation in untransfected HEK293 cells. The format is cell-based, Human. The settings on record: ±5 μM FTC; for efflux (in words): 1 μM IA. As to the method: (§4) For cytotoxicity and accumulation experiments, cells were grown in drug-free medium for at least one week prior to the experiments. Human embryonic kidney cells (HEK293) and their stable transfectants overexpressing the R482, G482 and T482 ABCG2 were grown in the above RPMI-1640 medium supplemented with 2 mg/ml G-418. Bram, E. E., et al., (2006) Cancer Chemother Pharmacol 58(6), 826-834.
(§5) IA derivative and tetramethylrosamine (TMR) accumulation in parental HEK293 and their HEK293/ABCG2 R/G/T482 transfectants were carried out as described herein with the a slight amendment of using a single IA concentration of 1 μM ±FTC (5 μM) for the selected as well as 0.1 μM for TMR accumulation. Robey, R. W., et al., (2003) Br J Cancer 89(10), 1971-1978. Cellular fluorescence was determined using a FACSCalibur (BD Bioscience, San Jose, Calif. USA) flow cytometer. FL1-H excitation of IAs was at 488 nm and emission was collected at 525 nm, whereas FL2-H excitation of TMR was at […] and emission was collected at 574 nm. Flow cytometric results are presented as means±SD of 3 independent experiments.
(§6) Bram, E. E., et al., (2006) Cancer Chemother Pharmacol 58(6), 826-834.
For orientation: A flow cytometer gives signals particle by particle.

The target in the next data set is T1, ABCG2 (A549/K1.5 cells) (Homo sapiens, UniProt Q9UNQ0).
T1 construct: Drug resistant A549/K1.5 cells with ABCG2 overexpression were maintained under a continuous drug selection with 1.5 μM C-1305; endogenous in cells; host or cells: A549/K1.5 (C-1305-selected subline of human non-small cell lung cancer A549)
T1 sequence (Q9UNQ0 1-655): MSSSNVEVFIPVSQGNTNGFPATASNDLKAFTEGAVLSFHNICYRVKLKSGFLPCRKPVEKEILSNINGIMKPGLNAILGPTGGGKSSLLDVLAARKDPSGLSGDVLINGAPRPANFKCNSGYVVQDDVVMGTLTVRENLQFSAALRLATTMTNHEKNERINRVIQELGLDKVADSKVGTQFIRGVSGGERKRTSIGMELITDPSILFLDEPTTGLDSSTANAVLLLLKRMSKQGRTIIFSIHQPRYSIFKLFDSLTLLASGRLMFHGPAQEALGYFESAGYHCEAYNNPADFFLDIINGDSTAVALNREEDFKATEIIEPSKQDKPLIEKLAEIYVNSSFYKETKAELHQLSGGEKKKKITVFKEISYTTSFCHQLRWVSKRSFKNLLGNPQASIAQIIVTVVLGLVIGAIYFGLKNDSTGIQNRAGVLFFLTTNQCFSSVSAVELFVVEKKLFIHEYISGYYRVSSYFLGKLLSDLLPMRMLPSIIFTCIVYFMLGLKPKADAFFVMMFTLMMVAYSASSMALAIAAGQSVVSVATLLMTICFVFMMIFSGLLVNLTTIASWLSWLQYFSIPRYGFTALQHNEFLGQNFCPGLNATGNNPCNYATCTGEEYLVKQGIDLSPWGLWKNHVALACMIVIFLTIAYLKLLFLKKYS
The data set can be described thus: Fluorescence microscopy of nuclear accumulation of IAs in A549/K1.5 cells. The format is cell-based. The settings on record: 10 μM IA, 1 hr. As to the method:
In immunofluorescence microscopy of plasma membrane targeting of ABCG2 and nuclear accumulation of IAs, cells (1×10^4/well) were seeded in 24-well plates (1 ml medium/well) and incubated for 2 days, following which some wells were supplemented with 10 μM IA-containing medium±5 μM FTC and incubated for 1 h at 37° C. Cells were then washed twice with ice-cold PBS containing 0.1% BSA and blocked for 10 min at 4° C. with PBS containing 5% BSA. Cells were then washed once with ice-cold PBS containing 0.1% BSA and incubated for 30 min at 4° C. with a Phycoerythrin-conjugated, affinity-purified 5D3 mouse anti-human ABCG2 monoclonal antibody (1:100; eBioscience). Unspecific fluorescence was determined using cells that were incubated only with a secondary Phycoerythrin (PE)-conjugated goat anti-mouse IgG (1:200; Jackson Immunoresearch Labs, West Grove, Pa.). Cells were then washed twice and subjected to fluorescence microscopy using a DMIRE2 fluorescence microscope equipped with a DC300FX camera (Leica Microsystems, Wetzlar, Germany).
In order to exclude the possibility that differential subcellular accumulation of IA derivatives is the basis of the observed difference in cytotoxicity and cellular fluorescence, A549/K1.5 cells were incubated with 10 μM of selected IA derivatives from both group A and B in the presence or absence of FTC and subjected to fluorescence microscopy.

Another data set deals with T2, wild type R482 ABCG2 (Homo sapiens, UniProt Q9UNQ0).
T2 sequence (Q9UNQ0 1-655): T1 sequence (Q9UNQ0 1-655)
Kind of data set: Flow cytometric accumulation in HEK293 transfectants, wild type R482 ABCG2. Conditions: HEK293 wild type R482 ABCG2, 0.1 μM TMR, ±5 μM FTC. As to the method: as §4, §5, §6

In a further data set the target is T3, mutant G482 ABCG2 (Homo sapiens, UniProt Q9UNQ0, R482G).
T3 sequence (Q9UNQ0 1-655 R482G): T1 sequence (Q9UNQ0 1-655) with R482G
The data set can be described thus: Flow cytometric accumulation in HEK293 transfectants, mutant G482 ABCG2. The settings on record: HEK293 mutant G482 ABCG2, 0.1 μM TMR, ±5 μM FTC. As to the method:
as §4, §5, §6

The next data set has as its target T4, mutant T482 ABCG2 (Homo sapiens, UniProt Q9UNQ0, R482T).
T4 sequence (Q9UNQ0 1-655 R482T): T1 sequence (Q9UNQ0 1-655) with R482T
Kind of data set: Flow cytometric accumulation in HEK293 transfectants, mutant T482 ABCG2. Conditions: HEK293 mutant T482 ABCG2, 0.1 μM TMR, ±5 μM FTC. As to the method:
as §4, §5, §6

Broadly, the IC50 is the concentration needed to halve the response being measured. Take `Cc1nc2ccc(NCCN(C)C)c3c(=O)c4cc(O)ccc4n1c23.Cl` [C-1309]: in the data set with A549 cells, the concentration for half-maximal inhibition (IC50) was determined as 0.05 ± 0.007 µM. Also, in the data set on A549/K1.5 cells, the concentration for half-maximal inhibition (IC50) is 3.22 ± 0.18 µM and the “RF (resistance fold)” value is reported as 60.80. In the data set with A549/K1.5 cells (versus parental A549 cells), the “resistance of A549/K1.5 cells” value was found to be 61 fold and the “resistance of A549/K1.5 cells (in words)” value is “prominent resistance”. The “efflux (in words)” value in data set [1] is “not from untransfected HEK293 cells”.

With `CCN(CC)CCNc1ccc2nc(C)n3c4ccc(O)cc4c(=O)c1c23.Cl` [C-1310], the half-inhibitory concentration (IC50) in the data set on A549 cells stood at 0.06 ± 0.008 µM. In addition, in the data set with A549/K1.5 cells, the half-maximal inhibitory concentration (IC50) came to 1.22 ± 0.07 µM and the “RF (resistance fold)” value is listed as 20.30. Moreover, in the data set on A549/K1.5 cells (versus parental A549 cells), the “resistance of A549/K1.5 cells (in words)” value is reported as “prominent resistance”. Besides, at ABCG2 (A549/K1.5 cells) (absence of FTC), the “intracellular accumulation (fluorescence microscopy)” value is listed as “no apparent intracellular accumulation”. The “nuclear accumulation (fluorescence microscopy)” value on ABCG2 (A549/K1.5 cells) (presence of 5 μM FTC) is on record as “marked restoration of nuclear accumulation”. In addition, in data set [1], the “efflux (in words)” value is recorded as “not from untransfected HEK293 cells”.

With `CN(C)c1ccc2c(-c3ccc(CCl)cc3)c3ccc(=[N+](C)C)cc-3oc2c1` [TMR, tetramethylrosamine], the “AF (FTC inducible accumulation fold)” value is recorded as 1.4 on wild type R482 ABCG2, “marked AF” at mutant G482 ABCG2, “marked AF” on mutant T482 ABCG2 and 0.8 fold in data set [1] (0.1 μM TMR).

The values above are taken from patent US8470844B2, “Imidazoacridinone derivative compounds and methods for their use” (Technion Research & Development Foundation Limited, priority 2008, dated 2013).
